Test results taken from ChEMBL document CHEMBL4715742, “Design, synthesis and cytotoxic activities of novel 2,5-diketopiperazine derivatives” (Eur J Med Chem, 2016).

What was measured:
[1] = test system: U-937; test: Induction of apoptosis in human U-937 cells assessed as late apoptotic cells at 2 uM measured after 48 hrs by annexinV/FITC-propidium iodide staining based flow cytometry (reference value: 3.27 to 3.41 %); type: functional
[2] = test system: U-937; test: Cytotoxicity against human U-937 cells assessed as cell viability at 0.37 uM measured after 48 hrs by CCK8 assay relative to control; type: functional; details: read-out: Activity
[3] = test system: HeLa; test: Cytotoxicity against human HeLa cells assessed as reduction in cell viability measured after 72 hrs by CCK8 assay; type: functional, cell-based; details: Homo sapiens, HeLa, 72 h; read-out: IC50
[4] = test system: U-937; test: Induction of apoptosis in human U-937 cells assessed as early apoptotic cells at 1 uM measured after 48 hrs by annexinV/FITC-propidium iodide staining based flow cytometry (reference value: 1.78 to 1.88 %); type: functional
[5] = test system: U-937; test: Induction of apoptosis in human U-937 cells assessed as late apoptotic cells at 2 uM measured after 24 hrs by annexinV/FITC-propidium iodide staining based flow cytometry (reference value: 2.18 to 2.22 %); type: functional
[6] = test system: U-937; test: Induction of apoptosis in human U-937 cells assessed as necrotic cells at 0.5 uM measured after 24 hrs by annexinV/FITC-propidium iodide staining based flow cytometry (reference value: 1.12 to 1.48 %); type: functional
[7] = test system: HT-29; test: Cytotoxicity against human HT-29 cells assessed as reduction in cell viability measured after 72 hrs by CCK8 assay; type: functional, cell-based; details: Homo sapiens, HT-29, 72 h; read-out: IC50
[8] = test system: U-937; test: Induction of apoptosis in human U-937 cells assessed as early apoptotic cells at 0.5 uM measured after 48 hrs by annexinV/FITC-propidium iodide staining based flow cytometry (reference value: 1.78 to 1.88 %); type: functional
[9] = test system: U-937; test: Induction of apoptosis in human U-937 cells assessed as necrotic cells at 0.5 uM measured after 48 hrs by annexinV/FITC-propidium iodide staining based flow cytometry (reference value: 0.794 to 0.955 %); type: functional
[10] = test system: U-937; test: Cytotoxicity against human U-937 cells assessed as reduction in cell viability measured after 24 to 72 hrs by CCK8 assay; type: functional, cell-based; details: dose 0.37-3.3 µM, time 24-72 hrs
[11] = test system: K562; test: Cytotoxicity against human K562 cells assessed as cell viability at 3.3 uM measured after 48 hrs by CCK8 assay relative to control; type: functional; details: read-out: Activity
[12] = test system: U-937; test: Induction of apoptosis in human U-937 cells assessed as viable cells at 1 uM measured after 24 hrs by annexinV/FITC-propidium iodide staining based flow cytometry (reference value: 95 to 95.1 %); type: functional; details: read-out: Activity
[13] = test system: K562; test: Cytotoxicity against human K562 cells assessed as cell viability at 1.1 uM measured after 48 hrs by CCK8 assay relative to control; type: functional; details: read-out: Activity
[14] = test system: K562; test: Cytotoxicity against human K562 cells assessed as cell viability at 0.37 uM measured after 48 hrs by CCK8 assay relative to control; type: functional; details: read-out: Activity
[15] = test system: U-937; test: Induction of apoptosis in human U-937 cells assessed as early apoptotic cells at 2 uM measured after 48 hrs by annexinV/FITC-propidium iodide staining based flow cytometry (reference value: 1.78 to 1.88 %); type: functional
[16] = test system: U-937; test: Cytotoxicity against human U-937 cells assessed as cell viability at 3.3 uM measured after 24 hrs by CCK8 assay relative to control; type: functional; details: read-out: Activity
[17] = test system: U-937; test: Cytotoxicity against human U-937 cells assessed as cell viability at 3.3 uM measured after 72 hrs by CCK8 assay relative to control; type: functional; details: read-out: Activity
[18] = test system: HL-60; test: Cytotoxicity against human HL-60 cells assessed as reduction in cell viability measured after 72 hrs by CCK8 assay; type: functional, cell-based; details: Homo sapiens, HL-60, 72 h; read-out: IC50
[19] = test system: U-937; test: Induction of apoptosis in human U-937 cells assessed as viable cells at 0.5 uM measured after 24 hrs by annexinV/FITC-propidium iodide staining based flow cytometry (reference value: 95 to 95.1 %); type: functional; details: read-out: Activity
[20] = test system: U-937; test: Induction of apoptosis in human U-937 cells assessed as apoptotic ratio at 0.5 uM measured after 48 hrs by annexinV/FITC-propidium iodide staining based flow cytometry (reference value: 5.2 +/- 0.2 %); type: functional
[21] = test system: U-937; test: Cytotoxicity against human U-937 cells assessed as cell viability at 1.1 uM measured after 48 hrs by CCK8 assay relative to control; type: functional; details: read-out: Activity
[22] = test system: U-937; test: Cytotoxicity against human U-937 cells assessed as cell viability at 0.37 uM measured after 24 hrs by CCK8 assay relative to control; type: functional; details: read-out: Activity
[23] = test system: DU-145; test: Cytotoxicity against human DU-145 cells assessed as reduction in cell viability measured after 72 hrs by CCK8 assay; type: functional, cell-based; details: Homo sapiens, DU-145, 72 h; read-out: IC50

SMILES: C=CCn1c(=O)/c(=C/CCCC)[nH]c(=O)/c1=C/c1ccc(OC)cc1
- Activity [1]: 35.1%
- viability at 0.37 µM [2]: 74.9%
- IC50 [3]: 900 nM
- Activity [4]: 10.8%
- Activity [5]: 10.3%
- Activity [6]: 1.07%
- IC50 [7]: 1200 nM
- Activity [8]: 7.77%
- Activity [9]: 1.05%
- Activity [10]: Dose-dependent effect
- viability at 3.3 µM [11]: 8.6%
- viability at 1 µM [12]: 82.6%
- viability at 1.1 µM [13]: 28.7%
- viability at 0.37 µM [14]: 90.9%
- Activity [15]: 9.76%
- viability at 3.3 µM [16]: 1.6%
- viability at 3.3 µM [17]: 0%
- IC50 [18]: 900 nM
- viability at 0.5 µM [19]: 88.4%
- Activity [20]: 16.7%
- viability at 1.1 µM [21]: 8.8%
- viability at 0.37 µM [22]: 70.5%
- IC50 [23]: 1700 nM
